# Laboratory results taken from article PMC3909471 (European journal of medicinal chemistry, 2013).
# How the values were obtained:
# [1] = molecular target: rat CB1 cannabinoid receptor (Rattus norvegicus, UniProt P20272); test: [3H]CP55,940 radioligand competition binding, rat CB1; conditions: removal of the methyl moiety from the N-methylpiperazine analogue
# human CB2 receptors [2] = molecular target: T1, human CB2 receptors (Homo sapiens, UniProt P34972); test: Effect on CP55,940-induced CB2 internalization in hCB2 cells; type: cell-based; conditions: 10 nM CP55,940 cotreated with 3 uM compound
# T1 sequence (P34972 whole entry): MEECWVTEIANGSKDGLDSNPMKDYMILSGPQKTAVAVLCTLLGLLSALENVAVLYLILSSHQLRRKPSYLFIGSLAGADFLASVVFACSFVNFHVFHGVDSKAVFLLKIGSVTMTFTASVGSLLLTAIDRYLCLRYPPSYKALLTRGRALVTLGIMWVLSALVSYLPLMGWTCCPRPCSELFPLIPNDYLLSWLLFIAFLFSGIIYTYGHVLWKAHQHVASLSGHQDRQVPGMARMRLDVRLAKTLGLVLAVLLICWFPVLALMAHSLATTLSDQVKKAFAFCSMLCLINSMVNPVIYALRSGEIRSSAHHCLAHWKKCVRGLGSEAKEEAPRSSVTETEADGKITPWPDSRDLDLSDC
# human CB2 receptors [3] = molecular target: T1, human CB2 receptors; test: hCB2 receptor internalization; type: cell-based; conditions: at 10 μM as printed in text
# [4] = system: L5 and L6 spinal nerve ligation neuropathic pain model in rats; test: Spinal nerve ligation neuropathic pain model, von Frey paw withdrawal threshold; type: in vivo, rat; conditions: intraperitoneally 5 – 20 mg/kg
# [5] = molecular target: human CB2 cannabinoid receptor (Homo sapiens, UniProt P34972); test: [3H]CP55,940 radioligand competition binding, human CB2
# human CB2 cannabinoid receptor, sequence (P34972 whole entry): as above
# rat CB1 cannabinoid receptor, sequence (P20272 whole entry): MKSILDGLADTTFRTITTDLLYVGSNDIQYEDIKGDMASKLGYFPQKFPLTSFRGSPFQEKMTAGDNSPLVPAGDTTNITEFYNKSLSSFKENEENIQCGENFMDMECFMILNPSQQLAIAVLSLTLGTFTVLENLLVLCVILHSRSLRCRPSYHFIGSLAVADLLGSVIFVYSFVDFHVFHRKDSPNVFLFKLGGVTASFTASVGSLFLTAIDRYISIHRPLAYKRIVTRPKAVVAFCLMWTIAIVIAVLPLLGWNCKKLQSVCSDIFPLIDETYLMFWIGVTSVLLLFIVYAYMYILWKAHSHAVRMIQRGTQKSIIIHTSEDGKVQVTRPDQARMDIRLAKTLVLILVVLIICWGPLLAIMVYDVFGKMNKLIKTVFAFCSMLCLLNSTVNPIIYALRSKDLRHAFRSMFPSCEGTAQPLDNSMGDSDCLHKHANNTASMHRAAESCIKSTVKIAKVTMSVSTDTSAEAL
compound,measurement,setting,value
"CCCCCn1c2ccccc2c2cc(C(=O)N3CCNCC3)ccc21 [Compound 15, (9-Pentyl-9H-carbazol-3-yl)(piperazin-1-yl)methanone]",Decrease of CB1 affinity,[1],4 fold
"CCCCCn1c2ccc(C(=O)N3CCCCC3)cc2c2ccc(OC)cc21 [Compound 81, (7-Methoxy-9-pentyl-9H-carbazol-3-yl)(piperidin-1-yl)methanone]","Reduction of hCB2 internalization induced by CP55,940",human CB2 receptors [2],"reduced compound CP55,940-induced internalization"
same,CB2 internalization,human CB2 receptors [3],failed to internalize CB2
"CS(=O)(=O)NCCCn1c2ccccc2c2cc(C(=O)N3CCCCC3)ccc21 [Compound 64, N-(3-(3-(Piperidine-1-carbonyl)-9H-carbazol-9-yl)propyl)methanesulfonamide]","Tactile allodynia (paw withdrawal threshold, von Frey filaments)",[4],significantly attenuated tactile allodynia in a dose-dependent manner
"O=C(c1ccc2c(c1)c1ccccc1n2Cc1ccncc1)N1CCCCC1 [Compound 74, Piperidin-1-yl(9-(pyridin-4-ylmethyl)-9H-carbazol-3-yl)methanone]",Improvement in CB2 selectivity,[5]; 4-methylpyridine replacing the 4-methyltetrahydropyran fragment (vs 69),4 fold
"CCCCCn1c2ccccc2c2cc(C(=O)NCC(C)(C)C)ncc21 [Compound 35, N-(2,2-dimethylpropyl)-9-pentyl-9H-pyrido[3,4-b]indole-3-carboxamide]","Reduction of hCB2 internalization induced by CP55,940",human CB2 receptors [2],more than 50%
"CCCCCn1c2ccccc2c2cc(C(=O)c3ccccc3)ccc21 [Compound 18, (9-Pentyl-9H-carbazol-3-yl)(phenyl)methanone]","Reduction of hCB2 internalization induced by CP55,940",human CB2 receptors [2],more than 50%
"CCCCCn1c2ccccc2c2cc(C(=O)N3CCN(C)CC3)ccc21 [Compound 9, (4-Methylpiperazin-1-yl)(9-pentyl-9H-carbazol-3-yl)methanone]",Improvement of CB2 selectivity,[5]; compared to the piperidine analogue 4,3 fold
